Source: PubChem BioAssay (NCI)
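Method: 48-hour compound exposure of cells in 96-well plates, five concentrations, linear interpolation of endpoints. The concentration for full growth arrest is given as TGI.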

Key:
Assay in all cases: NCI tumour cell line growth inhibition, 48 h
TK-10 renal = tested on: TK-10 renal
M14 melanoma = tested on: M14 melanoma
SNB-19 CNS = tested on: SNB-19 CNS
UACC-62 melanoma = tested on: UACC-62 melanoma
K-562 leukemia = tested on: K-562 leukemia
SK-MEL-2 melanoma = tested on: SK-MEL-2 melanoma
EKVX NSCLC = tested on: EKVX NSCLC
U251 CNS = tested on: U251 CNS
HCT-116 colon = tested on: HCT-116 colon
SF-539 CNS = tested on: SF-539 CNS

Structure (SMILES)	TGI (TK-10 renal) [µM]	TGI (M14 melanoma) [µM]	TGI (SNB-19 CNS) [µM]	TGI (UACC-62 melanoma) [µM]	TGI (K-562 leukemia) [µM]	TGI (SK-MEL-2 melanoma) [µM]	TGI (EKVX NSCLC) [µM]	TGI (U251 CNS) [µM]	TGI (HCT-116 colon) [µM]	TGI (SF-539 CNS) [µM]
COc1ccc(C2SCC(=O)N2NC(=O)C(C)Oc2ccccc2C)cc1 (stereo not given)	> 100	> 100	> 100	> 100	> 100	> 100	> 100	> 100	> 100	> 100
COC1=C2C=[N+](C)C3C(=C2C=CC1OC)Cc1cc2c(cc13)OCO2 (stereo not given)	32.4	30.1	17.2	21.6	42.5	29.6	35.6	30.7	31.5	24
COC(=O)NC(Cc1ccccc1)NC(C)=O (stereo not given)	> 100	> 100	> 100	> 100	> 100	> 100	> 100	> 100	> 100	> 100
COc1c(C)c(C/C=C(\C)CC/C=C(\C)CC/C=C(\C)CCC=C(C)C)c(OC)c2ccccc12	> 100	> 100	> 100	> 100	> 100	> 100	> 100	> 100	> 100	> 100
CC(=O)Oc1cc(OC(C)=O)c2c(C)cc(=O)oc2c1	> 100	> 100	> 100	> 100	> 100	> 100	> 100	> 100	> 100	> 100
O=C1CS[C@@](CC(c2ccc(Cl)cc2)c2ccc(Cl)cc2)(c2ccc(Cl)cc2)N1	> 100	> 100	> 100	63.1	> 100	87.6	> 100	63.1	> 100	64.4
CC12ON(P(=O)(c3ccccc3)c3ccccc3)C(C)(c3ccccc31)c1ccccc12	> 100	> 100	> 100	> 100	> 100	> 100	> 100	> 100	> 100	> 100
CCN(CC)CCOc1ccc(C(O)(Cc2ccc(OC)cc2)c2ccccc2)cc1 (stereo not given)	76.4	27.8	67.5	31	18.6	35.9	80.6	35.5	26.8	25.1
CCCc1nnc2sc(COc3cc(Cl)c(OCc4nn5c(CCC)nnc5s4)cc3Cl)nn12	> 100	> 100	> 100	> 100	> 100	> 100	82.2	> 100	> 100	> 100
C[n+]1c2ccccc2c(/C=N\NS(=O)(=O)c2ccc(Cl)cc2)c2ccccc21	> 100	> 100	> 100	> 100	> 100	> 100	> 100	> 100	> 100	> 100
CC12CCC(C(=Nc3cc(C(F)(F)F)cc(C(F)(F)F)c3)C1=O)C2(C)C (stereo not given)	> 100	> 100	> 100	> 100	> 100	51.2	> 100	> 100	99	44.9
Cc1cc2oc(C)c(S(=O)(=O)NC(=O)Nc3ccc(Cl)cc3)c(=O)c2c(=O)o1	> 100	> 100	> 100	> 100	> 100	> 100	> 100	> 100	> 100	> 100
CCCN(CCC)C1CCc2c(ccc3cc[nH]c23)C1 (stereo not given)	> 100	32.4	> 100	> 100	> 100	> 100	> 100	> 100	> 100	> 100
Cc1c(O)c(OC2OC(CO)C(O)C(O)C2O)cc2c1C=C[C@@H]1[C@@]2(C)C(=O)C[C@]2(C)[C@@H]([C@@](C)(O)C(=O)CCC(C)(C)O)[C@H](O)C[C@@]12C (stereo not given in full)	33.4	68.9	54	33.5	> 100	68.7	91.4	43.2	37.8	43.9
CCC(=O)/C(=C\I)c1ccccc1	28.3	4.72	29	9.77	> 100	4.41	33.6	4.83	3.3	34.3
COC(=O)c1cccc(OC)c1C#Cc1c(OC)cccc1OC	> 100	> 100	> 100	> 100	> 100	> 100	> 100	> 100	> 100	> 100
O=[N+]([O-])c1cccc(Cl)c1Oc1ccc(S(=O)(=O)/N=C(\NO)Nc2ccc(Cl)cc2)cc1	30.4	27.4	30.7	25.5	33.3	29.6	26.2	27.5	25	28.1
CCOC(=O)CCC(NC(=O)Cc1ccc(Oc2nc3ccccc3nc2-c2ccccc2)cc1)C(=O)OCC (stereo not given)	> 100	> 100	> 100	> 100	> 100	> 100	> 100	> 100	> 100	> 100
CC(=O)N(C(C)=O)n1c(Cc2ccc(C)cc2)nn(C(C)=O)c1=O	> 100	> 100	> 100	> 100	> 100	> 100	> 100	> 100	> 100	> 100
